Drawing on PubChem BioAssay AID434951 (Broad Institute, 2010), this text covers EC50 for 66 compounds.

pEC50: −log10 of the molar value. Activity calls are given as the source filed them.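 How the source made its calls: active means a fitted half-maximal concentration EC50 for the rise in nuclear signal no higher than ten times the top dose tested; inconclusive means flat fit with activity between 30% and 70%, or unusable fit; inactive means EC50 beyond ten times the top dose.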

What is called EC50 is the concentration that produces a half-maximal response. Usually pEC50 stands for the EC50 on a negative log10 scale, so that one unit is a factor of ten.

For the assay, the target named is Hypoxia-inducible factor 1-alpha (Homo sapiens) (UniProt Q16665). Kind of assay: activators of HIF1alpha nuclear accumulation, confirmation, imaging, fluorescence, U2OS GFP-HIF1alpha (AID 434951). Particulars: U2OS GFP-HIF1alpha nuclear intensity, high-content imaging.
Chain of Hypoxia-inducible factor 1-alpha (Homo sapiens) (Q16665 whole entry, looked up): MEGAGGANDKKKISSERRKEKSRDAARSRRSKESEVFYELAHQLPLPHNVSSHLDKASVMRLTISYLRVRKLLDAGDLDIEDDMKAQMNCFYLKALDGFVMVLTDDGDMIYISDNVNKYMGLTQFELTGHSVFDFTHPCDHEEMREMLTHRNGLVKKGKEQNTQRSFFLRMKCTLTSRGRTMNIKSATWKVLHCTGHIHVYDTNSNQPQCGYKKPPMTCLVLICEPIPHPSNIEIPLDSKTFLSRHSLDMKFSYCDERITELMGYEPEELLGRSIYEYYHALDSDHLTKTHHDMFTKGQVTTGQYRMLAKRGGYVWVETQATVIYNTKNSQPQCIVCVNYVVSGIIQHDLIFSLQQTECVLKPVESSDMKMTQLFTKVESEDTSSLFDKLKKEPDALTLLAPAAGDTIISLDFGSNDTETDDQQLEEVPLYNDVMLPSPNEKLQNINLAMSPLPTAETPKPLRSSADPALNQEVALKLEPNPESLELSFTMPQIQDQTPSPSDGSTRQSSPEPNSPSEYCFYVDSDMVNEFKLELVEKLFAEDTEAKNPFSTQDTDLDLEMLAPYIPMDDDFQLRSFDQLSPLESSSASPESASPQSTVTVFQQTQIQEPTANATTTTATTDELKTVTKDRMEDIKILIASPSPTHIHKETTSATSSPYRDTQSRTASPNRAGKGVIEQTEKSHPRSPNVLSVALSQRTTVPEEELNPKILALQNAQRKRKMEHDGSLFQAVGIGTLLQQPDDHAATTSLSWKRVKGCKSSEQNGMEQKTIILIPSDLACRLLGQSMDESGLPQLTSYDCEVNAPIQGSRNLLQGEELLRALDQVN
Turning to `Cc1ccc(-c2cc(N)n(-c3ccc(F)cc3)n2)cc1`, the EC50 is > 35 µM (inactive).

For `CCCCOC(=O)c1ccc(NC(=S)NC(=O)c2c(Br)c(C)nn2C)cc1`, the EC50 is > 35 µM (inactive).

With `CC(=O)NC(c1ccc(C)cc1)c1cc(Cl)c2cccnc2c1O` (stereo unspecified), the pEC50 is 4.78.

Regarding `Cc1cc(Cl)n2c(nc3cc(F)c(F)cc32)c1C#N`, the EC50 is > 35 µM (inactive).

As for `CCCC(=O)NC(c1ccc(Cl)cc1)c1ccc2cccnc2c1O` (stereo unspecified), the pEC50 is 5.65.

As to `O=S(=O)(NCc1nnc2c(C(F)(F)F)cc(Cl)cn12)c1ccccc1`, the EC50 was > 35 µM (inactive).

Regarding `CCn1c(N2CCC(Cc3ccccc3)CC2)nc2c1c(=O)[nH]c(=O)n2C`, the EC50 was > 35 µM (inactive).

For `COc1ccc(N/N=C(/N=Nc2nc(C)cc(=O)[nH]2)c2ccccc2)cc1`, the pEC50 was 6.07.

Take `CCc1ccc(NC(=O)CSc2ccc(-c3ccccn3)nn2)cc1`: the pEC50 is 4.98.

With `CN(CC(=O)Nc1ccc(F)c(F)c1F)C(=O)/C=C/c1ccc(Cl)cc1`, the EC50 was > 35 µM (inactive).

Regarding `O=[N+]([O-])c1cccnc1N/N=C/c1ccccc1O`, the negative-log EC50 (pEC50) was 4.46.

`CC(=O)Nc1cccc(NC(=O)CS(=O)(=O)c2cn(CC(=O)N3CCOCC3)c3ccccc23)c1`: the EC50 is > 35 µM (inactive).

For `COc1cc(SC)ccc1C(=O)Nc1ccc(C)cc1C`, the EC50 is > 35 µM (inactive).

For `COc1ccc2nc(NC(=O)CSc3nccc(C)n3)sc2c1`, the EC50 was > 35 µM (inactive).

On to `Cc1cccc(C(=O)O/N=C(\N)c2ccc(Cl)cc2)c1`, for which the EC50 was > 35 µM (inactive).

Consider `c1ccc(OCc2nc(-c3ccncc3)no2)cc1`, for which the EC50 was > 35 µM (inactive).

As to `O=C(N/N=C/c1cc(O)ccc1Br)c1cccnc1`, the EC50 is > 35 µM (inactive).

With `COc1ccc(C2CC(c3cccs3)=NN2C(=O)CSc2nc(=O)n3cc(C)ccc3n2)cc1` (stereo unspecified), the EC50 was > 35 µM (inactive).

Regarding `COc1ccccc1OCC(=O)N/N=C/c1c(O)ccc2ccccc12`, the pEC50 was 5.21.

With `O=c1oc2cc([N+](=O)[O-])ccc2nc1/C=C(\O)c1cccc(Br)c1`, the EC50 was > 35 µM (inactive).

As for `Cc1ccc(Oc2ncc(CN3CC(C)OC(C)C3)s2)cc1` (stereo unspecified), the EC50 was > 35 µM (inactive).

In the case of `CCOc1ccc(C(=O)NC(=S)Nc2cccc(NC(=O)c3ccco3)c2)cc1[N+](=O)[O-]`, the EC50 was > 35 µM (inactive).

As for `Nc1ccnn1-c1ccccc1`, the EC50 was > 35 µM (inactive).

Turning to `CCn1c(C)nc2cc(C(=O)N/N=C/c3cccc(O)c3O)ccc21`, the pEC50 is 4.61.

As for `CCC(=NCc1cc(OC)cc(OC)c1)c1c(O)[nH]c(=O)[nH]c1=O`, the EC50 was > 35 µM (inactive).

For the compound `CC(C)[C@H](NC(=O)c1ccccc1Cl)C(=O)Nc1nc(-c2ccccn2)cs1`, the pEC50 is 5.18.

On to `COc1cccc(/C=N/Nc2ncnc3c2ncn3Cc2ccccc2)c1O`, for which the pEC50 is 5.22.

On to `CCc1ccc(C2C(=O)c3ccccc3C2=O)cc1`, for which the EC50 is > 35 µM (inactive).

As to `O=C(N/N=C/c1c(O)ccc2ccccc12)c1ccc(Br)o1`, the pEC50 is 4.91.

For the compound `COc1ccccc1-c1cc(C(F)(F)F)nc(S(=O)(=O)CCCC(=O)NCc2ccc(F)cc2)n1`, the pEC50 was 5.02.

As for `COc1ccc(S(=O)(=O)N2CCC(c3cc(-c4cccc5ccccc45)n[nH]3)CC2)cc1`, the EC50 is > 35 µM (inactive).

As to `COc1cc2c(cc1OC)C(c1ccccc1)N(S(C)(=O)=O)CC2` (stereo unspecified), the EC50 was > 35 µM (inactive).

As to `CC(C)Sc1nc(N)c2c3c(sc2n1)CN(C)CC3`, the EC50 is > 35 µM (inactive).

With `O=C(CN1C(=O)COc2ccc(Cl)cc21)Nc1ccc2c(c1)OCCO2`, the EC50 was > 35 µM (inactive).

As for `CC(C)(C)c1cc(C(=O)N2CCN(c3ncccn3)CC2)ccn1`, the EC50 was > 35 µM (inactive).

`CCOC(=O)CCS(=O)(=O)c1nc(-c2ccccc2)cc(C(F)(F)F)n1`: the EC50 is > 35 µM (inactive).

On to `CCC(=O)N1CCc2cc(S(=O)(=O)NCCC(=O)N3CCN(c4cccc(OC)c4)CC3)ccc21`, for which the EC50 was > 35 µM (inactive).

With `COCc1c(C(=O)N/N=C(\C)c2ccc(Cl)s2)nnn1-c1nonc1N`, the EC50 was > 35 µM (inactive).

Regarding `COc1ccc(CNC(=S)N/N=C/c2ccc(O)c(OC)c2)cc1`, the EC50 is > 35 µM (inactive).

Consider `O=C(c1cc2ccccc2o1)N1CCN(Cc2ccc3c(c2)OCO3)CC1`, for which the EC50 was > 35 µM (inactive).

In the case of `O=C(NCc1ccc(F)cc1)C1CCN(S(=O)(=O)N2CCOCC2)CC1`, the EC50 is > 35 µM (inactive).

In the case of `O=C(CCCOc1ccc(Cl)cc1Cl)N/N=C/c1ccccc1O`, the pEC50 is 5.13.

`Cn1ncc(Cl)c1C(=O)Nc1nc2ccc(Cl)cc2s1`: the EC50 was > 35 µM (inactive).

In the case of `CC1(C)CC(=O)C(CC2C(=O)CC(C)(C)CC2=O)C(=O)C1`, the EC50 is > 35 µM (inactive).

In the case of `Cc1cccc(C(=O)OC(C)CN2CCCC2)c1` (stereo unspecified), the EC50 is > 35 µM (inactive).

As to `Cc1ccccc1N=Nc1ccc(O)c2ncccc12`, the pEC50 was 5.30.

As for `CS(=O)(=O)c1ccc2nc(NC(=O)C3CC3)sc2c1`, the EC50 was > 35 µM (inactive).

For `CC(=O)Nc1nc2ccccc2n1CCOc1ccccc1Cl`, the EC50 was > 35 µM (inactive).

`COC(=O)/C(C#N)=C/c1c(N2CCN(Cc3ccc4c(c3)OCO4)CC2)nc2c(C)cccn2c1=O`: the EC50 was > 35 µM (inactive).

Take `O=C(C1CCCN(Cc2ccccc2F)C1)N1CCc2ccccc2C1` (stereo unspecified): the EC50 was > 35 µM (inactive).

Turning to `Cc1ccc2nc(SCC(=O)N3CCCCC3)nc(=O)n2c1`, the EC50 was > 35 µM (inactive).

With `CCN(CC)CCCNC(=O)C1c2ccccc2C(=O)N(C)C1c1ccc(OC)cc1` (stereo unspecified), the EC50 is > 35 µM (inactive).

`COC(=O)Nc1nnc(Cc2ccc(OC)cc2)s1`: the EC50 is > 35 µM (inactive).

In the case of `Cc1ccc(NC(=O)Cn2cnc3c(=O)n(C)c(=O)n(C)c32)c(C)c1`, the EC50 is > 35 µM (inactive).

Take `CCc1cc2c(=O)[nH]c(-c3ccccn3)nc2s1`: the pEC50 is 5.32.

With `COc1ccccc1N=Nc1ccc(O)c2ncccc12`, the pEC50 is 5.12.

On to `CCN(CC)CCC(=O)Nc1cccc2c1C(=O)c1ccccc1C2=O`, for which the EC50 was > 35 µM (inactive).

In the case of `Cc1noc(C(=O)Nc2sc3c(c2C#N)CCC3)c1Cl`, the EC50 was > 35 µM (inactive).

As for `COc1ccc(C(=O)/C=C/C(=O)N(CC(=O)NC2CCCCC2)CC2CCCO2)c(O)c1` (stereo unspecified), the EC50 is > 35 µM (inactive).

With `CCN1/C(=C/c2ccc3cc(C)ccc3[n+]2CC)Sc2ccccc21`, the pEC50 is 4.88.

`FC(F)Oc1ccc(NC(=S)Nc2ccc3cn[nH]c3c2)cc1`: the EC50 is > 35 µM (inactive).

`Cc1cc(C)nc(Sc2ncnc(N)c2[N+](=O)[O-])n1`: the pEC50 is 4.69.

For the compound `COc1ccc(/C=N/NC(=O)c2ccoc2C)cc1O`, the EC50 was > 35 µM (inactive).

Regarding `COc1ccccc1NC(=O)c1nc(S(=O)(=O)Cc2ccccc2)ncc1Cl`, the EC50 was > 35 µM (inactive).

Regarding `O=C(COC(=O)c1ccccc1Nc1ccccc1)NCc1ccccc1Cl`, the EC50 was > 35 µM (inactive).

With `Cc1cc(=O)[nH]c(SCC(=O)Nc2nonc2C)n1`, the EC50 was > 35 µM (inactive).
